Test results: paper PMC7190830, “Neuromedin U signaling regulates retrieval of learned salt avoidance in a C. elegans gustatory circuit” (Nature Communications, 2020)
Values joined by “and” are separate entries in the source; they are usually repeats but may differ in a detail not shown here. Identical values can stand only once. Like-named read-outs stand apart in the source and are kept apart here. Values belong to the compound of their own block, whether it stands above or below them. No end group written: not given here.

Columns and labels:
C. elegans = experiment: Optogenetic silencing of ASG during conditioning or navigation of a 0-50 mM NaCl gradient; assay type: in vivo; settings: ATR, single replicates
Text: From left to right n = 51, 59, 43, 44 animals per condition. […] (bottom panel). Scale bar, 20 µm. f Optogenetic silencing of ASG. Individual worms are illuminated with yellow–green light for silencing CAPA-1 neurons during conditioning (acquisition phase) or during the NaCl chemotaxis assay when worms are navigating a linear NaCl gradient (retrieval phase) (see Methods for details). Arch requires supplementation of the cofactor all-trans retinal (ATR) to the worm culture. Transgenic C. elegans not fed ATR-supplemented food serve as a negative control. After conditioning, worms are put in the middle of a chemotaxis plate with a linear NaCl gradient (0–50 mM) and kept in the field-of-view using an automated xy-stage. […] Corresponding biased random walk and klinotaxis indices shown in Supplementary Fig. 10a, b. The time interval for statistical comparison was reduced to 5 min to accommodate the small plate format. g, h From left to right n = 10, 12, 14, 14, 12, 12, 14, 11 animals per condition. Shaded regions on a and g represent S.E.M. while black bars indicate the time interval for calculating the mean gradient position and behavioral indices. Significances determined by two-way ANOVA with Tukey’s HSD post hoc test. n.s. not significant; *p ≤ 0.05; **p ≤ 0.01; ***p ≤ 0.001. Boxplots show medians, 25th and 75th percentiles as box limits. The whiskers extend to the most extreme data points not considered as outlier.
Transgenic worms expressing the outward-directed proton pump Arch in ASG were cultured at 25 °C on culture plates seeded with sufficient OP50 E. coli. One day before the assay, transgenic worms were transferred to OP50 culture plates to which all-trans retinal (ATR, Sigma Aldrich) has been added (300 µM final concentration in fresh OP50 liquid culture). This cofactor is needed for Arch activity, and allows transgenic worms transferred to culture plates without ATR to serve as negative control. A 0 to 50 mM linear gradient was generated in a 55 mm Petri plate. First, 15 mL buffered CTX agar supplemented with 50 mM NaCl was poured in a 55 mm diameter Petri dish elevated to one side. An additional 15.5 mL buffered CTX agar without NaCl was poured on top of the first triangular wedge once it solidified. NaCl was allowed to diffuse at least 24 h prior the assay. Individual worms were washed for 15 min in a small volume of CTX buffer with or without 100 mM NaCl (NaCl-conditioning or mock-conditioning). After conditioning the worm was transferred to the center of the 0 to 50 mM NaCl gradient plate, mounted on a Zeiss AxioObserver Z1 microscope. The animal was then allowed to navigate the plate for 10 min while an automated xy-stage kept it in the field-of-view. […] Each animal’s path was reconstructed based on the recorded low-resolution video-stream and the logged stage positions. The behavior was then segmented and indices reflecting chemotaxis behavior were calculated as described above.
Supplementary Fig. 10. Behavioral effects of silencing CAPA-1 neurons (related to Fig. 7) The inhibitory opsin Arch is expressed in ASG under control of the capa-1 promoter. Individual transgenic worms are illuminated with yellow-green light for ASG silencing while being conditioned, or when they are navigating an agar plates with a 0 to 50 mM NaCl linear gradient (a-b) or no gradient (c-d). Arch requires the cofactor all-trans retinal (ATR) to be supplemented to the worm culture.
Transgenic C. elegans not fed ATR-supplemented food serve as a negative control. See Methods for details. (a) Biased random walk and (b) klinotaxis indices for mock- and NaCl-conditioned animals navigating a 0 to 50 mM NaCl gradient. (a-b) From left to right n = 10, 12, 14, 14, 12, 12, 14, 11 animals per condition. (c) Mean speed of individual worms and (d) the fraction of time in each behavioral state when worms are navigating a plate without NaCl. From left to right n = 7, 7, 7, 7, 7, 7, 5, 7 animals per

NMUR-1 = biological target: T1, NMUR-1 (Caenorhabditis elegans, UniProt Q18701); experiment: Luminescence-based (aequorin) calcium mobilization assay for GPCR activation, NMUR-1 expressed in CHO cells; assay type: cell-based; settings: calcium response, aequorin luminescence 496 nm, 30 s, CHO K1 cells stably overexpressing apo-aequorin and human Gα16, transiently transfected nmur-1/pcDNA3.1, 0.1 nM to 100 µM, HPLC-purified peptides, read-out: EC50 (half maximal effective concentration) to activate NMUR-1
T1 sequence (Q18701 1-400): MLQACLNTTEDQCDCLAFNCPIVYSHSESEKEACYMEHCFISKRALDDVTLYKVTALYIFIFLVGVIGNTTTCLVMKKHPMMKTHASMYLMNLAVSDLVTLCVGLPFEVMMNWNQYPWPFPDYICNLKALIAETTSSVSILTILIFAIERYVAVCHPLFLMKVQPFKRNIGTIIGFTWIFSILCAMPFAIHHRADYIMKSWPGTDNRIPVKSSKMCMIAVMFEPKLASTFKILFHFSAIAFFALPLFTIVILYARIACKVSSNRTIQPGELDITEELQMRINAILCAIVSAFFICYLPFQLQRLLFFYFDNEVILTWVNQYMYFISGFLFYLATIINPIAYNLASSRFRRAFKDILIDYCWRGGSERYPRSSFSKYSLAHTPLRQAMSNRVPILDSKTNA
Text: Cells transfected with an empty pcDNA3.1 vector are used as a control. Error bars show S.E.M. CAPA-1-1 n = 6; CAPA-1-2 n = 6; CAPA-1-3 n = 5 experimental repeats. c The […] encodes a neuropeptide precursor that harbors three predicted peptide sequences (CAPA-1-1, -2, and -3), which are flanked by mono- and dibasic cleaving sites. Black bars indicate the positions of deletions in […]-44 mutant alleles used in this study. d Sequence comparison of C. elegans CAPA-1 neuropeptides and NmU neuropeptides from H. sapiens, D. rerio, and D. melanogaster. Conserved C-terminal features are highlighted in black. Residues with similar physicochemical properties are colored gray.

[1] = NaCl-conditioned, Time Window Silencing: Navi - Retrieval
[2] = NaCl-conditioned, Time Window Silencing: Wash - conditioning
[3] = mock-conditioned, Time Window Silencing: Navi - Retrieval
[4] = mock-conditioned, Time Window Silencing: Wash - conditioning
[5] = CAPA-1-1 n = 6, CAPA-1-3 n = 5 experimental repeats

Compound: CC1=C(/C=C/C(C)=C/C=C/C(C)=C/C=O)C(C)(C)CCC1 [ATR]
- Fraction of time in Pause (C. elegans; [1]): 0
- Fraction of time in Run (C. elegans; [1]): 0.741 and 0.8212 and 0.8921 and 0.8348 and 0.9414 and 0.927 and 0.8623
- Fraction of time in Turn (C. elegans; [1]): 0.1151 and 0.03803 and 0.0668 and 0.04464 and 0.02467 and 0.01439
- Fraction of time in Pause (C. elegans; [2]): 0
- Fraction of time in Pirouette (C. elegans; [2]): 0.1562 and 0.1901 and 0.02158 and 0.1641 and 0.1069 and 0 and 0.05344
- Fraction of time in Run (C. elegans; [2]): 0.7451 and 0.7688 and 0.9609 and 0.8359 and 0.888 and 0.9702 and 0.8828
- Fraction of time in Turn (C. elegans; [2]): 0.09866 and 0.04111 and 0.01747 and 0 and 0.005139 and 0.0298 and 0.06372
- Fraction of time in Pirouette (C. elegans; NaCl, Time Window Silencing: Navi - Retrieval): 0.1439 and 0.1408 and 0.04111 and 0.1205 and 0.03392 and 0.0483 and 0.1233
- Fraction of time in Pause (C. elegans; [3]): 0
- Fraction of time in Pirouette (C. elegans; [3]): 0.1326 and 0.1912 and 0.112 and 0.1439 and 0.1819 and 0.2179 and 0.1771
- Fraction of time in Run (C. elegans; [3]): 0.7564 and 0.7081 and 0.7595 and 0.8171 and 0.6516 and 0.7513 and 0.7264
- Fraction of time in Turn (C. elegans; [3]): 0.111 and 0.1007 and 0.1285 and 0.03905 and 0.1665 and 0.03083 and 0.0965
- Fraction of time in Pause (C. elegans; [4]): 0
- Fraction of time in Pirouette (C. elegans; [4]): 0.3217 and 0.03289 and 0 and 0.6616 and 0.1079 and 0.1788 and 0.04317
- Fraction of time in Run (C. elegans; [4]): 0.6208 and 0.8756 and 0.9106 and 0.3384 and 0.8016 and 0.8068 and 0.9085
- Fraction of time in Turn (C. elegans; [4]): 0.05755 and 0.09147 and 0.08941 and 0 and 0.09044 and 0.01439 and 0.0483

- EC50 (NMUR-1; [5]): 142 nM
Compound: AFFYTPRI-NH2 [CAPA-1-3]

- EC50 (NMUR-1; [5]): 6 nM
Compound: APHPSSALLVPYPRV-NH2 [CAPA-1-1]

- EC50 (NMUR-1; CAPA-1-2 n = 6 experimental repeats): 8000 nM
Compound: LYMARV-NH2 [CAPA-1-2]
